# Where two headings read alike, the source gives them in different places.
# What was measured:
# B. thailandensis = test: microbe, parasite or virus in culture; format: cell-based, Burkholderia thailandensis; conditions: Burkholderia thailandensis, read-out: MIC90 B. thailandensis
# [1] = tested on: Acinetobacter spp. H064200250; test: MIC determination for Acinetobacter strains (Example 3); format: cell-based, Acinetobacter sp.; conditions: LEV R, CIP R, MRP R, IMP I
# [2] = tested on: resistant strains of A. baumannii and one strain of Acinetobacter sp.; test: MIC without and with sub-inhibitory polymyxin B, whole panel / MIC ranges (Example 4; also strains not listed separately); format: cell-based
# [3] = tested on: 11 strains of A. baumannii and one strain of Acinetobacter sp.; test: Preliminary MBC without and with sub-inhibitory polymyxin B, whole panel (Example 4; also strains not listed separately); format: cell-based; conditions: Acinetobacter baumannii, A. baumannii A14, without polymyxin B, 2nd experiment, read-out: MBC without PB
# [4] = tested on: Acinetobacter sp. (H064200250); test: MIC without and with sub-inhibitory polymyxin B (Example 4); format: cell-based; conditions: Acinetobacter, without polymyxin B, read-out: MIC without PB
# A. baumannii A329 [5] = test: as above; format: cell-based, Acinetobacter baumannii
# A. baumannii A387 [6] = test: as above; format: cell-based, Acinetobacter baumannii
# A. baumannii A472 [7] = test: as above; format: cell-based, Acinetobacter baumannii
# A. baumannii A473 [8] = test: as above; format: cell-based, Acinetobacter baumannii
# A. baumannii ATCC 19606 = test: Preliminary MBC without and with sub-inhibitory polymyxin B (Example 4); format: cell-based, Acinetobacter baumannii; conditions: Acinetobacter baumannii, ATCC19606, A. baumannii ATCC 19606, without polymyxin B, preliminary MBC, read-out: MBC without PB
# [9] = tested on: Acinetobacter sp. (H064200250); test: as above; format: cell-based; conditions: Acinetobacter, without polymyxin B, preliminary MBC, read-out: MBC without PB
# Experimental: The plates were incubated for 18-20 hours at 37° C. The MBC was read as the lowest concentration at which colony growth was ca. 90% less than the positive control (i.e. usually where single colonies or no colonies were observed).
# A. baumannii J2 [10] = test: MIC without and with sub-inhibitory polymyxin B (Example 4); format: cell-based, Acinetobacter baumannii; conditions: Acinetobacter baumannii, J2, A. baumannii J2; without polymyxin B; 1st experiment; read-out: MIC without PB
# A. baumannii A401 [11] = test: as above; format: cell-based, Acinetobacter baumannii; conditions: Acinetobacter baumannii, A401, A baumannii A 401; without polymyxin B; 1st experiment; read-out: MIC without PB
# A. baumannii A489 [12] = test: as above; format: cell-based, Acinetobacter baumannii; conditions: Acinetobacter baumannii, A489, A. baumannii A489; without polymyxin B; 1st experiment; read-out: MIC without PB
# A. baumannii J2 [13] = test: Preliminary MBC without and with sub-inhibitory polymyxin B (Example 4); format: cell-based, Acinetobacter baumannii; conditions: Acinetobacter baumannii, J2, A. baumannii J2; without polymyxin B; preliminary MBC; 1st experiment; read-out: MBC without PB
# A. baumannii A329 [14] = test: as above; format: cell-based, Acinetobacter baumannii; conditions: Acinetobacter baumannii, A329, A. baumannii A329, without polymyxin B, 1st experiment, read-out: MBC without PB
# A. baumannii A387 [15] = test: as above; format: cell-based, Acinetobacter baumannii; conditions: Acinetobacter baumannii, A387, A. baumannii A387, without polymyxin B, 1st experiment, read-out: MBC without PB
# A. baumannii A401 [16] = test: as above; format: cell-based, Acinetobacter baumannii; conditions: Acinetobacter baumannii, A401, A baumannii A 401; without polymyxin B; preliminary MBC; 1st experiment; read-out: MBC without PB
# A. baumannii A472 [17] = test: as above; format: cell-based, Acinetobacter baumannii; conditions: Acinetobacter baumannii, A472, A. baumannii A472, without polymyxin B, 1st experiment, read-out: MBC without PB
# A. baumannii A473 [18] = test: as above; format: cell-based, Acinetobacter baumannii; conditions: Acinetobacter baumannii, A473, A. baumannii A473, without polymyxin B, 1st experiment, read-out: MBC without PB
# A. baumannii A489 [19] = test: as above; format: cell-based, Acinetobacter baumannii; conditions: Acinetobacter baumannii, A489, A. baumannii A489, without polymyxin B, 1st experiment, read-out: MBC without PB
# [20] = Acinetobacter spp. H064200250, 1st experiment
compound,measurement,setting,value
"Cc1c(-c2ccc(C#N)cc2)ccn2c(=O)c(C(=O)O)cc(C3CC3)c12 [Compound 14, 8-(4-cyanophenyl)-1-cyclopropyl-9-methyl-4-oxo-quinolizine-3-carboxylic acid]",MIC90,B. thailandensis,< 0.048 mg/L
"NCC[C@H](O)C(=O)N[C@@H]1C[C@H](N)[C@@H](O[C@H]2O[C@H](CN)[C@@H](O)[C@H](O)[C@H]2O)[C@H](O)[C@H]1O[C@H]1O[C@H](CO)[C@@H](O)[C@H](N)[C@H]1O [Amikacin, reference compound]",MIC,[1],16 mg/L
same,fold greater activity (fold lower MIC) in presence of polymyxin B compared to without polymyxin B,[2],not significantly affected
same,MIC +[…] PB,"[2]; A. baumannii NCTC 13301, +[…] polymyxin B, 2nd experiment, visual reading",128 mg/L
same,MBC,[3],16 mg/L
same,MIC,"[4]; Acinetobacter spp. H064200250 (OXA51), 2nd experiment, visual reading",8 mg/L
same,MIC,[4]; [20],16 mg/L
same,MIC +0.06 μg/ml PB,"A. baumannii A329 [5]; A. baumannii A329, +0.06 μg/ml polymyxin B, 2nd experiment, visual reading",128 mg/L
same,MIC +0.06 μg/ml PB,"A. baumannii A387 [6]; A. baumannii A387, +0.06 μg/ml polymyxin B, 2nd experiment, visual reading",128 mg/L
same,MIC ratio without/with polymyxin B,"A. baumannii A472 [7]; A. baumannii A472, ratio MIC without PB to MIC + PB, PB […], 2nd experiment",≥ 4 mg/L
same,MIC +0.06 μg/ml PB,"A. baumannii A473 [8]; A. baumannii A473, +0.06 μg/ml polymyxin B, 2nd experiment, visual reading",128 mg/L
same,MBC,A. baumannii ATCC 19606; 2nd experiment,16 mg/L
same,MBC,A. baumannii ATCC 19606; 1st experiment,16 mg/L
same,MBC,"[9]; Acinetobacter spp. H064200250 (OXA51), 2nd experiment",8 mg/L
same,MBC,[9]; [20],16 mg/L
Cc1c(-c2ccc(CN)s2)ccn2c(=O)c(C(=O)O)cc(C3CC3)c12 [Compound 13],MIC90,B. thailandensis,0.195 mg/L
"Cc1ccc(-c2ccn3c(=O)c(C(=O)O)cc(C4CC4)c3c2C)cc1 [Compound 15, 8-(p-tolyl)-1-cyclopropyl-9-methyl-4-oxo-quinolizine-3-carboxylic acid]",MIC90,B. thailandensis,< 0.048 mg/L
"Cc1c(-c2ccc(N)c(F)c2)c(F)cn2c(=O)c(C(=O)O)cc(C3CC3)c12 [Compound 17, 8-(3-fluoro-4-amino-phenyl)-1-cyclopropyl-7-fluoro-9-methyl-4-oxo-quinolizine-3-carboxylic acid]",MIC,"[2]; Acinetobacter baumannii, read-out: MIC range without PB 01-10-2008 n = 8, without polymyxin B, 1st experiment, 8 strains",1 to 16 mg/L
same,MIC,A. baumannii J2 [10],4 mg/L
same,MIC,[4]; [20],8 mg/L
same,MIC,"A. baumannii A329 [5]; Acinetobacter baumannii, A329, A. baumannii A329, without polymyxin B, 1st experiment, read-out: MIC without PB",8 mg/L
same,MIC,"A. baumannii A387 [6]; Acinetobacter baumannii, A387, A. baumannii A387, without polymyxin B, 1st experiment, read-out: MIC without PB",1 mg/L
same,MIC,A. baumannii A401 [11],4 mg/L
same,MIC,"A. baumannii A472 [7]; Acinetobacter baumannii, A472, A. baumannii A472, without polymyxin B, 1st experiment, read-out: MIC without PB",4 mg/L
same,MIC,"A. baumannii A473 [8]; Acinetobacter baumannii, A473, A. baumannii A473, without polymyxin B, 1st experiment, read-out: MIC without PB",4 mg/L
same,MIC,A. baumannii A489 [12],8 mg/L
same,MBC,A. baumannii ATCC 19606; 1st experiment,1 mg/L
same,MBC,A. baumannii J2 [13],4 mg/L
same,MBC,[9]; [20],8 mg/L
same,MBC,A. baumannii A329 [14],8 mg/L
same,MBC,A. baumannii A387 [15],2 mg/L
same,MBC,A. baumannii A401 [16],8 mg/L
same,MBC,A. baumannii A472 [17],4 mg/L
same,MBC,A. baumannii A473 [18],4 mg/L
same,MBC,A. baumannii A489 [19],4 mg/L
"Cc1cc(-c2ccn3c(=O)c(C(=O)O)cc(C4CC4)c3c2C)c(Cl)cc1N [Compound 11, 8-(2-chloro-4-amino-5-methyl-phenyl)-1-cyclopropyl-9-methyl-4-oxo-quinolizine-3-carboxylic acid]",MIC90,B. thailandensis,< 0.048 mg/L

# From patent US10155021B2, “Antimicrobial 4-oxoquinolizines” (Emergent Product Development Gaithersburg Inc., priority 2011, dated 2018)
